Test results published in the supplement of paper PMC11061612.

Key:
Assay in all cases: combination Emax (second highest fraction inhibited in the dose matrix, 72 h); higher = more inhibition; extreme values may be limits of the assay
786-0 (Kidney Carcinoma) = system: 786-0 (Kidney Carcinoma)
Procedure, shortened: (§1)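 Bliss excess equals the observed combination effect minus the expected value EA + EB − EA·EB, where EA and EB are the effects of each agent alone. Combination Emax is the second-highest inhibition within the matrix. Inhibition was scaled from CellTiter-Glo 2.0 luminescence, with 0 set by vehicle wells and 1 by blank wells, after 72 hours of two-drug dosing of cells plated in 1536-well plates.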

[1] = system: AN3-CA (Endometrial Carcinoma)
Procedure, shortened: as §1

[2] = system: BALL-1 (B-Lymphoblastic Leukemia)
Procedure, shortened: as §1

CHL-1 (Melanoma) = system: CHL-1 (Melanoma)
Procedure, shortened: as §1

[3] = system: COLO-684 (Endometrial Carcinoma)
Procedure, shortened: as §1

[4] = system: Calu-6 (Non-Small Cell Lung Carcinoma)
Procedure, shortened: as §1

[5] = system: EB-3 (Burkitt's Lymphoma)
Procedure, shortened: as §1

ES-2 (Ovarian Carcinoma) = system: ES-2 (Ovarian Carcinoma)
Procedure, shortened: as §1

[6] = system: FLO-1 (Esophageal Adenocarcinoma)
Procedure, shortened: as §1

[7] = system: HTC-C3 (Thyroid Gland Carcinoma)
Procedure, shortened: as §1

KYM-1 (Rhabdomyosarcoma) = system: KYM-1 (Rhabdomyosarcoma)
Procedure, shortened: as §1

[8] = system: LOUCY (T-Lymphoblastic Leukemia)
Procedure, shortened: as §1

[9] = system: NCI-H1563 (Lung Adenocarcinoma)
Procedure, shortened: as §1

[10] = system: NCI-H1755 (Lung Adenocarcinoma)
Procedure, shortened: as §1

[11] = system: NCI-H196 (Small Cell Lung Carcinoma)
Procedure, shortened: as §1

[12] = system: NCI-H810 (Non-Small Cell Lung Carcinoma)
Procedure, shortened: as §1

[13] = system: NKM-1 (Acute Myeloid Leukemia)
Procedure, shortened: as §1

[14] = system: OCI-AML5 (Acute Myeloid Leukemia)
Procedure, shortened: as §1

[15] = system: SK-MM-2 (Plasma Cell Myeloma)
Procedure, shortened: as §1

[16] = system: SNU-175 (Colorectal Carcinoma)
Procedure, shortened: as §1

Structure (SMILES) | combination Emax (786-0 (Kidney Carcinoma)) | combination Emax [1] | combination Emax [2] | combination Emax (CHL-1 (Melanoma)) | combination Emax [3] | combination Emax [4] | combination Emax [5] | combination Emax (ES-2 (Ovarian Carcinoma)) | combination Emax [6] | combination Emax [7] | combination Emax (KYM-1 (Rhabdomyosarcoma)) | combination Emax [8] | combination Emax [9] | combination Emax [10] | combination Emax [11] | combination Emax [12] | combination Emax [13] | combination Emax [14] | combination Emax [15] | combination Emax [16]
CCc1c2c(nc3ccc(O)cc13)-c1cc3c(c(=O)n1C2)COC(=O)[C@]3(O)CC [SN-38] + CN(C)CCCOc1ccc(-c2ccc3ncc4c(c3c2)n(C2CCOCC2)c(=O)n4C)cn1 [AZD0156] (first compound max 0.3 µM, 7x7, partner max 1 µM) | 0.884 | 0.325 | 1 | 0.567 | 0.473 | 0.762 | 0.748 | 0.912 | 0.664 | 0.764 | 0.952 | 0.759 | 0.441 | 0.752 | 0.0732 | 0.51 | 0.973 | 0.998 | 0.883 | 0.478
Cc1cc2ncnn2cc1Nc1ncc2c(n1)n(C1CCOCC1)c(=O)n2C [AZD7648] + O=C(c1cc(Cc2n[nH]c(=O)c3ccccc23)ccc1F)N1CCN(C(=O)C2CC2)CC1 [Olaparib] (first compound max 10 µM, 7x7, partner max 10 µM) | 0.101 | 0.304 | 0.826 | 0.134 | 0.238 | 0.355 | 0.377 | 0.283 | 0.208 | 0.214 | 0.274 | 0.444 | 0.331 | 0.263 | 0.129 | 0.193 | 0.73 | 0.25 | 0.156 | 0.0944
CC1(C)CCC(CN2CCN(c3ccc(C(=O)NS(=O)(=O)c4ccc(NCC5CCOCC5)c([N+](=O)[O-])c4)c(Oc4cnc5[nH]ccc5c4)c3)CC2)=C(c2ccc(Cl)cc2)C1 [Venetoclax] + Cc1cc2ncnn2cc1Nc1ncc2c(n1)n(C1CCOCC1)c(=O)n2C [AZD7648] (first compound max 1 µM, 7x7, partner max 10 µM) | 0.136 | 0.411 | 1 | 0.215 | 0.349 | 0.275 | 0.477 | 0.249 | 0.249 | 0.205 | 0.159 | 1 | 0.391 | 0.534 | 0.121 | 0.221 | 0.959 | 0.943 | 1 | 0.131
COc1cccc(OCCCN)c1-c1cc(Nc2cnc(C#N)cn2)n[nH]1 [Prexasertib] + CCc1c2c(nc3ccc(O)cc13)-c1cc3c(c(=O)n1C2)COC(=O)[C@]3(O)CC [SN-38] (first compound max 1 µM, 7x7, partner max 0.3 µM) | 0.938 | 0.946 | 1 | 0.877 | 0.956 | 0.862 | 0.87 | 0.988 | 0.918 | 0.966 | 0.97 | 1 | 0.629 | 0.952 | 0.659 | 0.98 | 0.938 | 1 | 0.875 | 0.734
Cc1nc(Nc2ncc(C(=O)Nc3c(C)cccc3Cl)s2)cc(N2CCN(CCO)CC2)n1 [Dasatinib] + CC(=O)Nc1cccc(-n2c(=O)n(C3CC3)c(=O)c3c(Nc4ccc(I)cc4F)n(C)c(=O)c(C)c32)c1 [Trametinib] (first compound max 2 µM, 7x7, partner max 1 µM) | 0.642 | 0.491 | 0.257 | 0.409 | 0.0848 | 0.969 | 0.362 | 0.86 | 0.966 | 0.906 | 0.401 | 0.344 | 0.447 | 0.961 | 0.103 | 0.103 | 0.899 | 0.81 | 0.123 | 0.425
COc1cc2c(cc1OCCCCCOc1cc3c(cc1OC)C(=O)N1C=C(C)C[C@H]1C=N3)N=C[C@@H]1CC(C)=CN1C2=O [SG3199] + O=C(c1cc(Cc2n[nH]c(=O)c3ccccc23)ccc1F)N1CCN(C(=O)C2CC2)CC1 [Olaparib] (first compound max 0.001 µM, 7x7, partner max 10 µM) | 0.0509 | 0.138 | 0.845 | 0.092 | 0.0915 | 0.186 | 0.0944 | 0.165 | 0.186 | 0.246 | 0.169 | 0.12 | 0.173 | 0.202 | 0.106 | 0.131 | 0.663 | 0.182 | 0.137 | 0.112
Cc1c2c(nn1C)CSCc1cc(n(C)n1)CSc1cc(c3ccccc3c1)OCCCc1c(C(=O)O)n(C)c3c-2c(Cl)ccc13 [AZD5991] + C=CCn1c(=O)c2cnc(Nc3ccc(N4CCN(C)CC4)cc3)nc2n1-c1cccc(C(C)(C)O)n1 [AZD1775] (first compound max 1 µM, partner max 1 µM) | 0.804 | 0.637 | 1 | 0.745 | 0.739 | 0.77 | 0.732 | 0.842 | 0.891 | 0.454 | 0.755 | 1 | 0.595 | 0.79 | 0.508 | 0.949 | 0.979 | 1 | 0.707 | 0.868
C=CCn1c(=O)c2cnc(Nc3ccc(N4CCN(C)CC4)cc3)nc2n1-c1cccc(C(C)(C)O)n1 [AZD1775] + C1CN(CCC1(C(=O)N[C@@H](CCO)C2=CC=C(C=C2)Cl)N)C3=NC=NC4=C3C=CN4 [Capivasertib] (first compound max 3 µM, partner max 3 µM) | 0.817 | 0.905 | 1 | 0.826 | 0.841 | 0.8 | 0.829 | 0.817 | 0.921 | 0.642 | 0.767 | 1 | 0.459 | 0.8 | 0.578 | 0.873 | 0.954 | 0.893 | 0.501 | 0.917
CN(CCO)CC[C@H](CSc1ccccc1)Nc1ccc(S(=O)(=O)NC(=O)c2ccc(N3CCC([C@@H](O)c4ccccc4-c4ccc(Cl)cc4)CC3)cc2)cc1S(=O)(=O)C(F)(F)F [AZD4320] + Cc1cc2ncnn2cc1Nc1ncc2c(n1)n(C1CCOCC1)c(=O)n2C [AZD7648] (first compound max 1 µM, 7x7, partner max 10 µM) | 0.138 | 0.445 | 1 | 0.177 | 0.197 | 0.59 | 0.334 | 0.501 | 0.347 | 0.342 | 0.0895 | 1 | 0.35 | 0.286 | 0.128 | 0.43 | 1 | 1 | 1 | 0.446
NC1(C(=O)N[C@@H](CCO)c2ccc(Cl)cc2)CCN(c2ncnc3[nH]ccc23)CC1 [Capivasertib] + COc1nnc2ccc(N3CCC(c4ccc(OCCN5CCN(C)C(=O)[C@H]5C)cc4)CC3)nn12 [AZD5153] (first compound max 10 µM, 7x7, partner max 1 µM) | 0.733 | 0.75 | 0.973 | 0.708 | 0.782 | 0.461 | 0.752 | 0.766 | 0.612 | 0.791 | 0.874 | 0.998 | 0.76 | 0.717 | 0.326 | 0.582 | 1 | 0.769 | 0.887 | 0.649
C[C@@H](c1ccc2nccn2c1)n1nnc2ncc(-c3cnn(C)c3)nc21 [Savolitinib] + Cc1c2c(nn1C)CSCc1cc(n(C)n1)CSc1cc(c3ccccc3c1)OCCCc1c(C(=O)O)n(C)c3c-2c(Cl)ccc13 [AZD5991] (first compound max 1 µM, 7x7, partner max 1 µM) | 0.183 | 0.308 | 0.612 | 0.291 | 0.174 | 0.172 | 0.361 | 0.176 | 0.294 | 0.182 | 0.43 | 0.46 | 0.465 | 0.173 | 0.173 | 0.255 | 0.976 | 0.137 | 0.131 | 0.426
Cc1cc2ncnn2cc1Nc1ncc2c(n1)n(C1CCOCC1)c(=O)n2C [AZD7648] + C=CCn1c(=O)c2cnc(Nc3ccc(N4CCN(C)CC4)cc3)nc2n1-c1cccc(C(C)(C)O)n1 [AZD1775] (first compound max 10 µM, partner max 1 µM) | 0.595 | 0.465 | 0.983 | 0.704 | 0.722 | 0.779 | 0.667 | 0.661 | 0.802 | 0.383 | 0.33 | 1 | 0.629 | 0.77 | 0.479 | 0.881 | 0.884 | 0.947 | 0.573 | 0.53
COc1nnc2ccc(N3CCC(c4ccc(OCCN5CCN(C)C(=O)[C@H]5C)cc4)CC3)nn12 [AZD5153] + Cc1c2c(nn1C)CSCc1cc(n(C)n1)CSc1cc(c3ccccc3c1)OCCCc1c(C(=O)O)n(C)c3c-2c(Cl)ccc13 [AZD5991] (first compound max 1 µM, 7x7, partner max 1 µM) | 0.557 | 0.544 | 0.98 | 0.985 | 0.67 | 0.24 | 0.822 | 0.654 | 0.717 | 0.745 | 1 | 0.997 | 0.835 | 0.446 | 0.307 | 0.995 | 1 | 0.997 | 0.93 | 0.931
